Paper PMC6271228, “Diethyl 2-(Phenylcarbamoyl)phenyl Phosphorothioates: Synthesis, Antimycobacterial Activity and Cholinesterase Inhibition” (Molecules, 2014)
Converted amounts (≈) assume the structure as drawn. Where two headings read alike, the source gives them in different places.

What was measured:
[1] = system: Mycobacterium tuberculosis My 331/88 (H37Rv); assay: microbe, parasite or virus in culture; format: cell-based
M. avium My 330/88 = assay: microbe, parasite or virus in culture; format: cell-based, Mycobacterium avium; conditions: for MIC: Mycobacterium avium, 37 °C; for MIC values against M. avium: all MIC values (14 and 21 d)
M. kansasii My 235/80 = assay: microbe, parasite or virus in culture; format: cell-based, Mycobacterium kansasii; conditions: for MIC: Mycobacterium kansasii, 37 °C; for MICs for M. kansasii 235/80: all time points
[2] = system: M. kansasii 6509/96 (clinically isolated); assay: microbe, parasite or virus in culture; format: cell-based; conditions: Mycobacterium kansasii, 37 °C
AChE from electric eel = biological target: T1, AChE from electric eel (Electrophorus electricus, UniProt O42275); assay: AChE inhibition, modified Ellman's method; format: biochemical, Electrophorus electricus L.
T1 construct: Acetylcholinesterase was obtained from electric eel (Electrophorus electricus L.); from tissue; host or cells: electric eel (Electrophorus electricus L.)
Text: (§1) The ability of the tested compounds to inhibit AChE from electric eel (Electrophorus electricus L.) and BChE from equine serum was screened in vitro using modified Ellman’s method for the evaluation of cholinesterase activity. […] […]. These two standards were chosen due to their different structures. […]. The choice of these drugs with different mechanism of action can provide relevant results. All tested compounds expressed a good inhibitory activity with IC50s in low micromolar values.
(§2) The IC50 values were determined using the spectrophotometric Ellman’s method, which is a simple, rapid and direct method to determine the SH and -S-S- group content in proteins. This method is widely used for cholinesterase activity evaluation and screening of the efficiency of cholinesterase inhibitors. Cholinesterase activity is measured indirectly by quantifying the concentration of 5-thio-2-nitrobenzoic acid (TNB) ion formed in the reaction between the thiol reagent 5,5'-dithiobis-2-nitrobenzoic acid (DTNB) and thiocholine, a product of substrate hydrolysis by cholinesterase (i.e., acetylthiocholine, ATCh). All the tested compounds were dissolved in dimethyl sulfoxide (concentration 0.01 M) and then diluted in demineralised water (concentration 0.001 M and 0.0001 M). The Ellman’s method is slightly modified according to Zdrazilova et al.. Acetylcholinesterase was obtained from electric eel (Electrophorus electricus L.) and butyrylcholinesterase from equine serum.

BChE from equine serum = biological target: T2, BChE from equine serum (Equus caballus, UniProt P81908); assay: BChE inhibition, modified Ellman's method; format: biochemical
T2 construct: butyrylcholinesterase from equine serum; from tissue; host or cells: equine serum
Text: as §1, §2

[3] = system: nontuberculous mycobacteria (M. avium and M. kansasii); assay: microbe, parasite or virus in culture; format: cell-based; conditions: Mycobacterium avium, M. avium and M. kansasii strains; read-out: MIC values against nontuberculous mycobacteria
[4] = 336 h, 14 d, 37 °C, read-out: MIC Mtb 331/88 (H37Rv) 14 d
[5] = 504 h, 21 d, 37 °C, read-out: MIC Mtb 331/88 (H37Rv) 21 d
[6] = MY330/88, 336 h, 14 d, read-out: MIC M. avium 330/88 14 d
[7] = MY330/88, 504 h, 21 d, read-out: MIC M. avium 330/88 21 d
[8] = MY235/80, 168 h, 7 d, read-out: MIC M. kansasii 235/80 7 d
[9] = MY235/80, 336 h, 14 d, read-out: MIC M. kansasii 235/80 14 d
[10] = MY235/80, 504 h, 21 d, read-out: MIC M. kansasii 235/80 21 d
[11] = 168 h, 7 d, read-out: MIC M. kansasii 6509/96 7 d
[12] = 336 h, 14 d, read-out: MIC M. kansasii 6509/96 14 d
[13] = 504 h, 21 d, read-out: MIC M. kansasii 6509/96 21 d

T2 sequence (P81908 whole entry): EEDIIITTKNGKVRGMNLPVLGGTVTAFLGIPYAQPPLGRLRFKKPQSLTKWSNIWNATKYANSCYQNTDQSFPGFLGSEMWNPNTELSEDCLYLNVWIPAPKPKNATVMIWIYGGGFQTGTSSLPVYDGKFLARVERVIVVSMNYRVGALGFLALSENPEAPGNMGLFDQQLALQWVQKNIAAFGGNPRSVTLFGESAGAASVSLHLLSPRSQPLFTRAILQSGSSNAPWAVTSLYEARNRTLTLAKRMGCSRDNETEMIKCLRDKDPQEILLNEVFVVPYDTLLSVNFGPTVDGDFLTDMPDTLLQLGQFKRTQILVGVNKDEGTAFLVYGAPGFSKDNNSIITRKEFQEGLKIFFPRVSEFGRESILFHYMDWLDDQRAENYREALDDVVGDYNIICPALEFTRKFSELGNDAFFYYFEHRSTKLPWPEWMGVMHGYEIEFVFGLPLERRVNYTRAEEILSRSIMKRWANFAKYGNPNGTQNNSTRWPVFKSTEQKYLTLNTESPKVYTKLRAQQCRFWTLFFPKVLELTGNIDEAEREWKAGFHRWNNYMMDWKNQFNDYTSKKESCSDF
T1 sequence (O42275 24-633): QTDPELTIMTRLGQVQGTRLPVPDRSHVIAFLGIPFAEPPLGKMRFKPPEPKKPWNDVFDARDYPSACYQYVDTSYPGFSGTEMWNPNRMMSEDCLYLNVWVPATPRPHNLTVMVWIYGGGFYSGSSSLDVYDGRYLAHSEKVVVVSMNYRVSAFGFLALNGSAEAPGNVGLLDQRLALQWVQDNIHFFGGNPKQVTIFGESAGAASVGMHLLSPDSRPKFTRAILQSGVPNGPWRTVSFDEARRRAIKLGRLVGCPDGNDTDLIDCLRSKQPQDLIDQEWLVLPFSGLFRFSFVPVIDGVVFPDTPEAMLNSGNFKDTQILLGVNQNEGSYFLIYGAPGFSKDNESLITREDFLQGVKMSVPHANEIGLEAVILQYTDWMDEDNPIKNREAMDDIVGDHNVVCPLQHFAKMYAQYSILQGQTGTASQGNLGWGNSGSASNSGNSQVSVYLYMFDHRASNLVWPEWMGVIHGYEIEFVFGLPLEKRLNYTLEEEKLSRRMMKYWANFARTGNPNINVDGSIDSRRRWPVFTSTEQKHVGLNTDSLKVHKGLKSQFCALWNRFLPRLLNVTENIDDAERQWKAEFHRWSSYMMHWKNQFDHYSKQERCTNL

Compound	MIC [1, 4]	MIC [1, 5]	MIC (M. avium My 330/88; [6])	MIC (M. avium My 330/88; [7])	MIC values against M. avium (M. avium My 330/88)	MIC (M. kansasii My 235/80; [8])	MIC (M. kansasii My 235/80; [9])	MIC (M. kansasii My 235/80; [10])	MICs for M. kansasii 235/80 (M. kansasii My 235/80)	MIC [2, 11]	MIC [2, 12]	MIC [2, 13]	IC50 (AChE from electric eel)	IC50 (BChE from equine serum)	MIC [3]	MIC ([1]; read-out: MIC against Mtb)
CCOP(=S)(OCC)Oc1cc(Cl)ccc1C(=O)Nc1ccc(C(F)(F)F)cc1 [1zz, O-(5-Chloro-2-{[4-(trifluoromethyl)phenyl]carbamoyl}phenyl) O,O-diethyl phosphorothioate]	8 µM (≈ 3.74 µg/mL)	16 µM (≈ 7.49 µg/mL)	62.5 µM (≈ 29.2 µg/mL)	62.5 µM (≈ 29.2 µg/mL)	≤ 250 µM	16 µM (≈ 7.49 µg/mL)	16 µM (≈ 7.49 µg/mL)	16 µM (≈ 7.49 µg/mL)	≤ 250 µM	16 µM (≈ 7.49 µg/mL)	32 µM (≈ 15 µg/mL)	32 µM (≈ 15 µg/mL)	9.16 ± 0.17 µM	18.3 ± 1 µM	≥ 16 µM	
CCOP(=S)(OCC)Oc1ccc(Br)cc1C(=O)Nc1cccc(Br)c1 [1d]	16 µM (≈ 8.37 µg/mL)	16 µM (≈ 8.37 µg/mL)	125 µM (≈ 65.4 µg/mL)	125 µM (≈ 65.4 µg/mL)	≤ 250 µM	125 µM (≈ 65.4 µg/mL)	125 µM (≈ 65.4 µg/mL)	125 µM (≈ 65.4 µg/mL)	≤ 250 µM	125 µM (≈ 65.4 µg/mL)	125 µM (≈ 65.4 µg/mL)	125 µM (≈ 65.4 µg/mL)	11.3 ± 0.05 µM	20 ± 0.2 µM		
CCOP(=S)(OCC)Oc1ccc(Cl)cc1C(=O)Nc1cccc(C(F)(F)F)c1 [1q, O-(4-Chloro-2-{[3-(trifluoromethyl)phenyl]carbamoyl}phenyl) O,O-diethyl phosphorothioate]	8 µM (≈ 3.74 µg/mL)	8 µM (≈ 3.74 µg/mL)	500 µM (≈ 234 µg/mL)	> 500 µM		125 µM (≈ 58.5 µg/mL)	500 µM (≈ 234 µg/mL)	> 500 µM		125 µM (≈ 58.5 µg/mL)	500 µM (≈ 234 µg/mL)	500 µM (≈ 234 µg/mL)	12.1 ± 0.2 µM	19.9 ± 0.2 µM		8 µM (≈ 3.74 µg/mL)
CCOP(=S)(OCC)Oc1ccc(Cl)cc1C(=O)Nc1cccc(Cl)c1 [1j, O-{4-Chloro-2-[(3-chlorophenyl)carbamoyl]phenyl} O,O-diethyl phosphorothioate]	32 µM (≈ 13.9 µg/mL)	62.5 µM (≈ 27.1 µg/mL)	> 500 µM	> 500 µM		250 µM (≈ 109 µg/mL)	250 µM (≈ 109 µg/mL)	500 µM (≈ 217 µg/mL)		250 µM (≈ 109 µg/mL)	500 µM (≈ 217 µg/mL)	500 µM (≈ 217 µg/mL)	9.97 ± 0.24 µM	14.8 ± 0.15 µM		
CCOP(=S)(OCC)Oc1cc(Cl)ccc1C(=O)Nc1ccc(F)cc1 [1y, O-{5-Chloro-2-[(4-fluorophenyl)carbamoyl]phenyl} O,O-diethyl phosphorothioate]	32 µM (≈ 13.4 µg/mL)	32 µM (≈ 13.4 µg/mL)	125 µM (≈ 52.2 µg/mL)	250 µM (≈ 104 µg/mL)		62.5 µM (≈ 26.1 µg/mL)	250 µM (≈ 104 µg/mL)	500 µM (≈ 209 µg/mL)		62.5 µM (≈ 26.1 µg/mL)	250 µM (≈ 104 µg/mL)	500 µM (≈ 209 µg/mL)	11.6 ± 0.3 µM	8.67 ± 0.49 µM		
CCOP(=S)(OCC)Oc1cc(Cl)ccc1C(=O)Nc1ccc(Br)cc1 [1w, O-{2-[(4-Bromophenyl)carbamoyl]-5-chlorophenyl} O,O-diethyl phosphorothioate]	32 µM (≈ 15.3 µg/mL)	32 µM (≈ 15.3 µg/mL)	250 µM (≈ 120 µg/mL)	250 µM (≈ 120 µg/mL)		32 µM (≈ 15.3 µg/mL)	32 µM (≈ 15.3 µg/mL)	32 µM (≈ 15.3 µg/mL)		32 µM (≈ 15.3 µg/mL)	62.5 µM (≈ 29.9 µg/mL)	62.5 µM (≈ 29.9 µg/mL)	10.12 ± 0.08 µM	16.4 ± 0.2 µM		
CCOP(=S)(OCC)Oc1ccc(Cl)cc1C(=O)Nc1cccc(Br)c1 [1m, O-{2-[(3-Bromophenyl)carbamoyl]-4-chlorophenyl} O,O-diethyl phosphorothioate]	16 µM (≈ 7.66 µg/mL)	16 µM (≈ 7.66 µg/mL)	500 µM (≈ 239 µg/mL)	500 µM (≈ 239 µg/mL)		125 µM (≈ 59.8 µg/mL)	500 µM (≈ 239 µg/mL)	> 500 µM		125 µM (≈ 59.8 µg/mL)	500 µM (≈ 239 µg/mL)	500 µM (≈ 239 µg/mL)	14.1 ± 0.2 µM	15.1 ± 1.3 µM		
CCOP(=S)(OCC)Oc1ccc(Br)cc1C(=O)Nc1ccc(C(F)(F)F)cc1 [1i, O-(4-Bromo-2-{[4-(trifluoromethyl)phenyl]carbamoyl}phenyl) O,O-diethyl phosphorothioate]	8 µM (≈ 4.1 µg/mL)	8 µM (≈ 4.1 µg/mL)	125 µM (≈ 64 µg/mL)	125 µM (≈ 64 µg/mL)	≤ 250 µM	32 µM (≈ 16.4 µg/mL)	62.5 µM (≈ 32 µg/mL)	125 µM (≈ 64 µg/mL)	≤ 250 µM	32 µM (≈ 16.4 µg/mL)	62.5 µM (≈ 32 µg/mL)	125 µM (≈ 64 µg/mL)	11.2 ± 0.02 µM	20.2 ± 1.6 µM		8 µM (≈ 4.1 µg/mL)
CCOP(=S)(OCC)Oc1ccc(Cl)cc1C(=O)Nc1ccc(C(F)(F)F)cc1 [1r, O-(4-Chloro-2-{[4-(trifluoromethyl)phenyl]carbamoyl}phenyl) O,O-diethyl phosphorothioate]	8 µM (≈ 3.74 µg/mL)	8 µM (≈ 3.74 µg/mL)	500 µM (≈ 234 µg/mL)	500 µM (≈ 234 µg/mL)		62.5 µM (≈ 29.2 µg/mL)	125 µM (≈ 58.5 µg/mL)	250 µM (≈ 117 µg/mL)		62.5 µM (≈ 29.2 µg/mL)	125 µM (≈ 58.5 µg/mL)	250 µM (≈ 117 µg/mL)	9.7 ± 0.18 µM	15.6 ± 0.7 µM		8 µM (≈ 3.74 µg/mL)
CCOP(=S)(OCC)Oc1ccc(Cl)cc1C(=O)Nc1ccc(Cl)c(Cl)c1 [1l, O-{4-Chloro-2-[(3,4-dichlorophenyl)carbamoyl]phenyl} O,O-diethyl phosphorothioate]	8 µM (≈ 3.75 µg/mL)	8 µM (≈ 3.75 µg/mL)	> 500 µM	> 500 µM		125 µM (≈ 58.6 µg/mL)	250 µM (≈ 117 µg/mL)	500 µM (≈ 234 µg/mL)		125 µM (≈ 58.6 µg/mL)	250 µM (≈ 117 µg/mL)	250 µM (≈ 117 µg/mL)	9.33 ± 0.11 µM	17.4 ± 0.5 µM		8 µM (≈ 3.75 µg/mL)
CCOP(=S)(OCC)Oc1cc(Cl)ccc1C(=O)Nc1cccc(Br)c1 [1v, O-{2-[(3-Bromophenyl)carbamoyl]-5-chlorophenyl} O,O-diethyl phosphorothioate]	32 µM (≈ 15.3 µg/mL)	32 µM (≈ 15.3 µg/mL)	500 µM (≈ 239 µg/mL)	500 µM (≈ 239 µg/mL)		32 µM (≈ 15.3 µg/mL)	125 µM (≈ 59.8 µg/mL)	250 µM (≈ 120 µg/mL)		32 µM (≈ 15.3 µg/mL)	125 µM (≈ 59.8 µg/mL)	250 µM (≈ 120 µg/mL)	9.98 ± 0.43 µM	14.9 ± 1 µM		
